According to US9346770B2, “Compounds having activating effect on subtypes of peroxisome proliferator-activated receptors and its preparation method and uses” (ZHEJIANG HISUN PHARMACEUTICAL CO., LTD., priority 2010, dated 2016):

Legend:
Assay type in all cases: cell-based
PPARα = PPARα (Homo sapiens (Human), UniProt Q07869); assay: Nuclear receptor reporter gene (luciferase) screening model, PPARα activation in HepG2 cells; conditions: for Experiment results (relative activation fold) PPARα: HepG2, solvent control = 1; for EC50: HepG2 reporter gene, 6 concentrations
Description: (§1) Using a reporter gene method, a screening model for screening a nuclear receptor agonist in living cells is designed on the basis of the principal that a nuclear receptor can activate transcription of its downstream gene after being activated. A reporter gene plasmid is constructed, in which the DNA binding sequence for the nuclear receptor (NRE) is inserted at the upstream of a luciferase gene, such that the expression of the luciferase gene is regulated by the nuclear receptor. The reporter gene plasmid is transferred into a cell simultaneously with the nuclear receptor. The nuclear receptor will be activated when a nuclear receptor agonist presents in the cell culture medium. The receptor being activated can induce the expression of the luciferase gene, while the amount of generated luciferase can be determined with its luminescent substrate. In this way, the intensity of activation of the nuclear receptor by the compound can be determined by observing the luminescence intensity. For the calibration of the experimental error caused by factors such as transfection efficiency, amount of inoculated cells, toxicity of the compound, etc, a GFP plasmid is co-transfected simultaneously as the internal reference. In the analysis of the experimental results, the luminescent values tested for all wells are calibrated with GFP values. The experimental results are expressed as relative activation fold, with a value of 1 for the solvent control. The greater the fold is, the higher the activation capacity represents.
(§2) The detailed procedure is described as follows:
(§3) Hepatocarcinoma cell HepG2 (from ATCC, American Type Culture Collection) was cultured in a DMEM medium supplemented with 10% heat-inactivated fetal bovine serum (FBS, Invitogen, Grand Island, N.Y., USA) in a T-75 culture flask (Greiner, Germany) placed in a 5% CO2 incubator at 37° C. and 100% relative humidity.
(§4) On the next day, when the cells in the 96-well culture plate grew up to 50-80% confluency, cell transfection was performed. The cell co-transfection system comprised FuGene6 transfection agent (Roche Molecular Biochemicals, Indianapolis, Ind., U.S.A.) and 60 ng DNA (10 ng hRXR, 10 ng pCMV βGal, 10 ng nuclear receptor expression plasmid RXR/PPARα, δ, γ, 30 ng GFP fluorescence reporter gene plasmid, respectively).
(§5) The cell culture medium was discarded immediately after 24 hours of transfection and replaced by 200 μl fresh DMEM medium containing the test medicament (with 10% FBS treated by activated carbon). The final concentration gradients of the test medicament were 10 μM, 5 μM, 1 μM, 0.1 μM, 0.01 μM, 0.001 μM, and 0 μM. 0.05 μM 2-bromostearic acid (purchased from Sigma, USA) was used as the positive control. The final concentration of DMSO in each well was 0.1%.
(§6) After 24 h treatment with the medicament, the cells were lysed with a lysis solution (Cell Culture Lysis buffer, Promega) and centrifuged, and the supernatant was collected. The supernatant was reacted with a fluorescence assay kit (Promega) and counted by a fluorometer (Ascent Fluoroskan FL reader, Thermo Labsystems, Finland), and the relative intensity of luciferase was determined. For the assay of the β-galactosidase activity used in the experiment as the internal reference (the internal reference for calibrating the transfection efficiency), 50 μl of the supernatant was transferred into a fresh microplate, treated with a Promega kit, and the value was read with a microplate reader at a wavelength of 405 nm (Bio-tech Instruments Inc., Winooski, Vt., USA) (Sauerberg, P.; Olsen, G. S.; Jeppesen, L.; Mogensen, J. P. et al., J. Med. Chem., 2007, 50, 1495-1503).
(§7) In the present screening protocol, it was calculated according to the activation of the receptor by the sample at 6 different concentrations.
(§8) The concentration-activity profile of the effects of a compound was fitted by carrying out iterative computation according to the following formula, and corresponding EC50 was calculated: […]

PPARγ = PPARγ (Homo sapiens (Human), UniProt P37231); assay: Nuclear receptor reporter gene (luciferase) screening model, PPARγ activation in HepG2 cells; conditions: for Experiment results (relative activation fold) PPARγ: HepG2, solvent control = 1; for EC50: HepG2 reporter gene, 6 concentrations
Description: as §1, §2, §3, §4, §5, §6, §7, §8

PPARδ = PPARδ (Homo sapiens (Human), UniProt Q03181); assay: Nuclear receptor reporter gene (luciferase) screening model, PPARδ activation in HepG2 cells; conditions: for Experiment results (relative activation fold) PPARδ: HepG2, solvent control = 1; for EC50: HepG2 reporter gene, 6 concentrations
Description: as §1, §2, §3, §4, §5, §6, §7, §8

PPARγ, sequence (P37231 whole entry, species assumed): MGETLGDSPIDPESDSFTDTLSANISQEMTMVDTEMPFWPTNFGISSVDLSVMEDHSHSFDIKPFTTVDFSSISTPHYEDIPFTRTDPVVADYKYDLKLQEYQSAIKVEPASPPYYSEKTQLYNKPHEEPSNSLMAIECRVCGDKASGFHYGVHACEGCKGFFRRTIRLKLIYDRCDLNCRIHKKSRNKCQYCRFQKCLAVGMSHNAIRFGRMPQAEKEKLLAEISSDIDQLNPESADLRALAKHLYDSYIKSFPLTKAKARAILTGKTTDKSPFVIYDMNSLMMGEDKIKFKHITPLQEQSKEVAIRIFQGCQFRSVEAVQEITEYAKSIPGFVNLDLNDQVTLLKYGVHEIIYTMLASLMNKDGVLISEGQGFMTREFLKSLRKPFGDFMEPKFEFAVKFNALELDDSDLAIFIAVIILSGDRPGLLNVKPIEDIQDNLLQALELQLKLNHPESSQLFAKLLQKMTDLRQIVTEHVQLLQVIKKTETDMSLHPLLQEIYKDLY
PPARγ, sequence (P19793 whole entry partner, species assumed): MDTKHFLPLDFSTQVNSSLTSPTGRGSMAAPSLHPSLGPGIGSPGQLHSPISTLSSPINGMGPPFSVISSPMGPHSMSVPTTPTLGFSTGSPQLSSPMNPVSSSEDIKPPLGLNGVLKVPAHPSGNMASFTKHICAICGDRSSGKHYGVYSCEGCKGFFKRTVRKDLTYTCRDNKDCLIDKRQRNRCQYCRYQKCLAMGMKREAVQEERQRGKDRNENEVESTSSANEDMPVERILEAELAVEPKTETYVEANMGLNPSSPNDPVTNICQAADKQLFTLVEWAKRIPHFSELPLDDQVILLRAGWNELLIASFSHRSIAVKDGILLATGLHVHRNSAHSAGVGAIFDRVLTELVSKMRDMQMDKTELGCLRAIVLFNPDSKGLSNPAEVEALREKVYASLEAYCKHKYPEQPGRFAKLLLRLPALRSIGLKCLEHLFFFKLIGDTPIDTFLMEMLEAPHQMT
PPARδ, sequence (Q03181 whole entry, species assumed): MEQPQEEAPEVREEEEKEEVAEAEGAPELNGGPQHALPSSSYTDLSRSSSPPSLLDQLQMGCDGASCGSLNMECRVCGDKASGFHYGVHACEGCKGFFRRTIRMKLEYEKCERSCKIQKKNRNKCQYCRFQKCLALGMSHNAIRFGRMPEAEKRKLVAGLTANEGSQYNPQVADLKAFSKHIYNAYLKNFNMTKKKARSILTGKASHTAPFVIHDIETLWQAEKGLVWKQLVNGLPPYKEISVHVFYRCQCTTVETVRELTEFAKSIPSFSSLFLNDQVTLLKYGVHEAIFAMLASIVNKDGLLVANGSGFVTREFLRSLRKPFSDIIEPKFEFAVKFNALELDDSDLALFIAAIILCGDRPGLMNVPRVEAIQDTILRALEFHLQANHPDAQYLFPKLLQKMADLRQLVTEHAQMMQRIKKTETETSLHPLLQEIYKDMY
PPARδ, sequence (P19793 whole entry partner, species assumed): as the sequence (P19793 whole entry partner, species assumed) above
PPARα, sequence (Q07869 whole entry, species assumed): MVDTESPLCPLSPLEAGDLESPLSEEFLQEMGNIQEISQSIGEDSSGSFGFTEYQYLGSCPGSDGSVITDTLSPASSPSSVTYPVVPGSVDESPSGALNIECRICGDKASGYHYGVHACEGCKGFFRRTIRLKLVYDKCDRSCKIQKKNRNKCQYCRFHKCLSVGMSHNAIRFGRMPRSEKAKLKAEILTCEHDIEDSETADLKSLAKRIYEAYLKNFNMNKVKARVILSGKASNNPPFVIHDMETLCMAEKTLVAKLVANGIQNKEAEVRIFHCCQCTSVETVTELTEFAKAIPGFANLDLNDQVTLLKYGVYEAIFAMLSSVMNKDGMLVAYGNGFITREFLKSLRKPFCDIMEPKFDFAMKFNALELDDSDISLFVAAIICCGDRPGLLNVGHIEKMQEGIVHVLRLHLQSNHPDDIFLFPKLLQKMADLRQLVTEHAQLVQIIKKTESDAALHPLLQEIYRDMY
PPARα, sequence (P19793 whole entry partner, species assumed): as the sequence (P19793 whole entry partner, species assumed) above

CCc1cc(OCCc2nc(-c3ccc([N+](=O)[O-])cc3)oc2C)ccc1CCC(=O)O [Compound 7]
Experiment results (relative activation fold) PPARα (PPARα; 0.001 uM): 1.15 fold | Experiment results (relative activation fold) PPARα (PPARα; 0.01 uM): 1.32 fold | Experiment results (relative activation fold) PPARα (PPARα; 0.1 uM): 1.42 fold | Experiment results (relative activation fold) PPARα (PPARα; 1 uM): 1.55 fold | Experiment results (relative activation fold) PPARα (PPARα; 5 uM): 1.66 fold | Experiment results (relative activation fold) PPARα (PPARα; 10 uM): 1.94 fold | EC50 (PPARα): 2880 nM | Experiment results (relative activation fold) PPARγ (PPARγ; 0.001 uM): 1.29 fold | Experiment results (relative activation fold) PPARγ (PPARγ; 0.01 uM): 1.86 fold | Experiment results (relative activation fold) PPARγ (PPARγ; 0.1 uM): 3.30 fold | Experiment results (relative activation fold) PPARγ (PPARγ; 1 uM): 3.80 fold | Experiment results (relative activation fold) PPARγ (PPARγ; 5 uM): 4.08 fold | Experiment results (relative activation fold) PPARγ (PPARγ; 10 uM): 4.35 fold | EC50 (PPARγ): 25 nM | Experiment results (relative activation fold) PPARδ (PPARδ; 0.001 uM): 1.66 fold | Experiment results (relative activation fold) PPARδ (PPARδ; 0.01 uM): 2.72 fold | Experiment results (relative activation fold) PPARδ (PPARδ; 0.1 uM): 2.99 fold | Experiment results (relative activation fold) PPARδ (PPARδ; 1 uM): 3.70 fold | Experiment results (relative activation fold) PPARδ (PPARδ; 5 uM): 3.60 fold | Experiment results (relative activation fold) PPARδ (PPARδ; 10 uM): 3.38 fold | EC50 (PPARδ): 3 nM

CCc1cc(OCCc2coc(-c3ccc(C(F)(F)F)cc3)n2)ccc1CCC(=O)O [Compound 2]
Experiment results (relative activation fold) PPARα (PPARα; 0.001 uM): 1.01 fold | Experiment results (relative activation fold) PPARα (PPARα; 0.01 uM): 1.06 fold | Experiment results (relative activation fold) PPARα (PPARα; 0.1 uM): 1.16 fold | Experiment results (relative activation fold) PPARα (PPARα; 1 uM): 1.30 fold | Experiment results (relative activation fold) PPARα (PPARα; 5 uM): 1.38 fold | Experiment results (relative activation fold) PPARα (PPARα; 10 uM): 1.82 fold | EC50 (PPARα): 5500 nM | Experiment results (relative activation fold) PPARγ (PPARγ; 0.001 uM): 1.09 fold | Experiment results (relative activation fold) PPARγ (PPARγ; 0.01 uM): 1.26 fold | Experiment results (relative activation fold) PPARγ (PPARγ; 0.1 uM): 1.26 fold | Experiment results (relative activation fold) PPARγ (PPARγ; 1 uM): 1.49 fold | Experiment results (relative activation fold) PPARγ (PPARγ; 5 uM): 1.73 fold | Experiment results (relative activation fold) PPARγ (PPARγ; 10 uM): 2.28 fold | EC50 (PPARγ): 692 nM | Experiment results (relative activation fold) PPARδ (PPARδ; 0.001 uM): 1.02 fold | Experiment results (relative activation fold) PPARδ (PPARδ; 0.01 uM): 1.17 fold | Experiment results (relative activation fold) PPARδ (PPARδ; 0.1 uM): 1.17 fold | Experiment results (relative activation fold) PPARδ (PPARδ; 1 uM): 1.34 fold | Experiment results (relative activation fold) PPARδ (PPARδ; 5 uM): 1.45 fold | Experiment results (relative activation fold) PPARδ (PPARδ; 10 uM): 1.99 fold | EC50 (PPARδ): < 1 nM

CCc1cc(OCCc2nc(-c3ccc(-c4nnn[nH]4)cc3)oc2C)ccc1CCC(=O)O [Compound 6]
Experiment results (relative activation fold) PPARα (PPARα; 0.001 uM): 1.33 fold | Experiment results (relative activation fold) PPARα (PPARα; 0.01 uM): 1.23 fold | Experiment results (relative activation fold) PPARα (PPARα; 0.1 uM): 1.27 fold | Experiment results (relative activation fold) PPARα (PPARα; 1 uM): 1.53 fold | Experiment results (relative activation fold) PPARα (PPARα; 5 uM): 1.76 fold | Experiment results (relative activation fold) PPARα (PPARα; 10 uM): 1.96 fold | EC50 (PPARα): 2630 nM | Experiment results (relative activation fold) PPARγ (PPARγ; 0.001 uM): 0.92 fold | Experiment results (relative activation fold) PPARγ (PPARγ; 0.01 uM): 1.02 fold | Experiment results (relative activation fold) PPARγ (PPARγ; 0.1 uM): 1.04 fold | Experiment results (relative activation fold) PPARγ (PPARγ; 1 uM): 1.74 fold | Experiment results (relative activation fold) PPARγ (PPARγ; 5 uM): 1.63 fold | Experiment results (relative activation fold) PPARγ (PPARγ; 10 uM): 2.53 fold | EC50 (PPARγ): 6760 nM | Experiment results (relative activation fold) PPARδ (PPARδ; 0.001 uM): 0.99 fold | Experiment results (relative activation fold) PPARδ (PPARδ; 0.01 uM): 0.87 fold | Experiment results (relative activation fold) PPARδ (PPARδ; 0.1 uM): 1.09 fold | Experiment results (relative activation fold) PPARδ (PPARδ; 1 uM): 1.11 fold | Experiment results (relative activation fold) PPARδ (PPARδ; 5 uM): 1.27 fold | Experiment results (relative activation fold) PPARδ (PPARδ; 10 uM): 1.63 fold | EC50 (PPARδ): 6760 nM
